Patent US20260069588A1, “VEPDEGESTRANT FOR USE IN TREATING CANCER” (Arvinas Operation, Inc., priority 2022, published 2026)

Assay: Clinical Pharmacology Study PPI (esomeprazole) cohort: single-dose PK
Format: in vivo, human
Conditions: 200 mg
Description: Study Design: The Clinical Pharmacology Study consists of 3 independent cohorts: 1) an open-label, randomized, 2-period, crossover Fed/Fasted cohort to determine food effects; 2) an open-label, 2-period, fixed sequence PPI cohort to evaluate interactions with esomeprazole; and 3) an open-label, randomized, 2 period, crossover rBA cohort to evaluate 2 tablet formulations.

O=C1CC[C@H](N2Cc3cc(N4CCN(CC5CCN(c6ccc([C@@H]7c8ccc(O)cc8CC[C@@H]7c7ccccc7)cc6)CC5)CC4)ccc3C2=O)C(=O)N1 [Compound A, (S)-3-(5-(4-((1-(4-((1R,2S)-6-hydroxy-2-phenyl-1,2,3,4-tetrahydronaphthalen-1-yl)phenyl)piperidin-4-yl)methyl)piperazin-1-yl)-1-oxoisoindolin-2-yl)piperidine-2,6-dione]
AUC with PPI vs without PPI: similar | decrease of median Cmax by PPI: about 18% | decrease of AUCinf by multiple doses of esomeprazole 40 mg (moderate-fat meal): 11% | decrease of Cmax by multiple doses of esomeprazole 40 mg (moderate-fat meal): 17.1%
